Non-standard residues stand in square brackets, D forms with d. Residues, ends and D or L forms follow the SMILES beside them.
Tested on: pituitaries removed from 20 day old female rats
Experiment: In vitro growth hormone release study (incubated rat pituitaries, GH radioimmunoassay of the medium)
Type: cell-based, rats (CD-1 strain)
Conditions: two pituitaries in 1 ml lactated Ringer's, 36° C., ± SEM
Protocol: Female rats of the CD-1 strain were housed in a constant temperature room at 24° C. with 14 hours light and 10 hours darkness. The rats were fed Purina brand rat chow ab libitum. All studies were started between 0800 and 1000 hours. Pituitaries were removed from 20 day old female rats. Two pituitaries were incubated at 36° C. in 1 ml of lactated Ringer's solution in 10 ml polytetrafluoroethylene beakers in a Dubnoff Shaker (90 cycles/min.). The pituitaries were incubated a total of 4 hours (P1, P2, I3, and I4). After two successive one hour preincubation periods (P1, P2), the peptide was added to the incubation medium hourly for 2 hours (I3, I4). This in vitro study was performed in triplicate and a standard radioimmunoassay of growth hormone present in the incubation medium was performed in duplicate. The hormonal activity was calculated as the difference (Δ) of growth hormone (GH) levels between I3, I4 and P2, i.e., (I3 -P2) and (I4 -P2). P values were calculated by Students' t test using six growth hormone values for each value recorded. The growth hormone radioimmunoassay reagents were distributed by the National Institute of Arthritis and Metabolite Disease Division (NIAMDD) program. The growth hormone values were calculated in terms of nanograms (ng) of a rat standard with a growth hormone potency of 0.61 units/mg.

NC(=O)[C@H](Cc1ccccc1)NC(=O)[C@@H](Cc1c[nH]c2ccccc12)NC(=O)[C@H](N)Cc1c[nH]c2ccccc12 [H2 N--D-Trp--D-Trp--Phe--CONH2, H2 N-D-Trp-D-Trp-Phe-CONH2] (H-[dW]-[dW]-Phe-NH2)
In vitro growth hormone release (ΔGH, I3-P2 and I4-P2) (0.3μg peptide, P Value ~0.02): 592 ± 237 ng.increment.GH/ml incubation | In vitro growth hormone release (ΔGH, I3-P2 and I4-P2) (1μg peptide, P Value <0.001): 943 ± 137 ng.increment.GH/ml incubation | In vitro growth hormone release (ΔGH, I3-P2 and I4-P2) (10μg peptide, P Value <0.001): 1263 ± 293 ng.increment.GH/ml incubation | In vitro growth hormone release (ΔGH, I3-P2 and I4-P2) (100μg peptide, P Value <0.01): 635 ± 165 ng.increment.GH/ml incubation

— patent US4228156A, “Synthetic peptides having pituitary growth hormone releasing activity” (Beckman Instruments, Inc., priority 1979, dated 1980)
